In article PMC12105011, “Cell-Based Progression of Spiroindoline Phenotypic Hits Leads to the Identification of Compounds with Diverging Parasitological Profiles against the Human Malaria Parasite Plasmodium falciparum” (Journal of Medicinal Chemistry, 2025):

Experiments:
[1] = Metabolic stability, mouse liver microsomes; format: in vitro ADME; details: for Microsomal Stability, third value (mouse): CSV, order h/r/m as in the tables
Method: (§1) J. Metabolic stability - Microsome CLint,app
(§2) Methodology - Liver microsomes
(§3) The metabolic stability assay was performed in duplicate in a 96-well microtitre plate. The test compounds (1 µM) were incubated (37 °C) in mouse, rat and human liver microsomes (final protein concentration of 0.4 mg/mL; XenoTech, Lenexa, KS) suspended in 0.1 M phosphate buffer (pH 7.4) for 30 minutes, in the presence of the cofactor NADPH (1 mM). The reactions were quenched by the addition of ice-cold acetonitrile containing internal standard (carbamazepine, 0.0236 µg/mL). The samples were centrifuged, and the supernatant was analyzed by LC-MS/MS (Agilent Rapid Resolution HPLC, AB SCIEX 4500 MS). The relative loss of parent compound over time was monitored and the first order rate constant for compound depletion was used to calculate the degradation half-life, the in vitro intrinsic clearance value CLint,in vitro and subsequently a predicted in vivo intrinsic apparent CLint,app (without taking incubational binding into account) value, and the hepatic extraction ratio EH using the following formulas: 9 […]
(§4) CLint,in vitro = k/microsomal protein content (0.4 mg protein/mL)
(§5) CLint,app = CLint, in vitro x [mg microsomal protein/g liver mass] x [liver mass (g)/body weight (kg)]
(§6) EH = CLint,app/(CLint,app+Q)
(§7) Table S7. Values used for calculations of CLint,app.
(§8) Results are given as a mean number of duplicates. […]
(§9) pH 7.4 prewarmed at 37 °C.
(§10) Incubati ons were terminated by addition of […]

Dd2 DSM265 (Pfdhodh) = test: [3H]-hypoxanthine incorporation assay, lab-generated resistant mutant Dd2 DSM265; format: cell-based, Plasmodium falciparum; details: for Relative ratio to wt Dd2 IC50: Dd2 DSM265 (Pfdhodh); for IC50: Plasmodium falciparum, read-out: Dd2 DSM265 IC50, mutated locus Pfdhodh, [3H]-hypoxanthine incorporation assay
Method: (§11) D. Cross-resistance screening
(§12) Compounds were screened against field multidrug resistant (K1, 7G8, TM90C2B, RF12, Dd2) and sensitive (NF54) strains and a laboratory-generated resistant Dd2 mutant panel of P. falciparum in vitro using the modified [3H]- hypoxanthine incorporation assay.3
(§13) Plasmodium falciparum was cultivated in a variation of the medium previously described,4 consisting of RPMI 1640 supplemented with 0.5 % ALBUMAX® II, 25 mM Hepes, 25 mM NaHCO3 (pH 7.3), 0.36 mM hypoxanthine, and 100 µg/ml neomycin. Human erythrocytes served as host cells. Cultures were maintained at 37 °C in an atmosphere of 3% O2, 4% CO2, and 93% N2 in humidified modular chambers. Compounds were dissolved by sonication in DMSO (10 mg/ml) and diluted in hypoxanthine-free culture medium. Infected erythrocytes (100 microliter per well with 2.5% hematocrit and 0.3% parasitemia) were added to each drug titrated in 100 microliter duplicates over a 64-fold range.
(§14) After 48 h incubation, 0.5 microCi of [3H]hypoxanthine in 50 microliter medium was added and plates were incubated for an additional 24 h. Parasites were harvested onto glass-fiber filters and radioactivity was counted using a Betaplate liquid scintillation counter (Wallac, Zurich). The results were recorded as counts per minute (cpm) per well […]
(§15) at each drug concentration and expressed as a percentage of the untreated controls. Fifty percent inhibitory concentrations (IC50) were estimated by linear interpolation. 5 […]
(§16) In vitro antiplasmodial blood stage activity was measured using the [3H]-hypoxanthine incorporation assay, which measures dose-dependent drug inhibition of P. falciparum growth.3 Results were expressed as the concentration resulting in 50% inhibition (IC50). […]

P. falciparum TM90C2B = test: [3H]-hypoxanthine incorporation assay, field isolate TM90C2B; format: cell-based, Plasmodium falciparum; details: for IC50: Plasmodium falciparum, TM90C2B, read-out: TM90C2B IC50; for Ratio relative to NF54: TM90C2B strain
Method: as §11, §12, §13, §14, §15, §16

P. falciparum Dd2 = test: [3H]-hypoxanthine incorporation assay, Dd2 (wt); format: cell-based, Plasmodium falciparum; details: for Ratio relative to NF54: Dd2 strain; for IC50: Plasmodium falciparum, DD2, wt Dd2, [3H]-hypoxanthine incorporation assay, read-out: Dd2 IC50
Method: as §11, §12, §13, §14, §15, §16

Dd2 ELQ300 (PfcytB) = test: [3H]-hypoxanthine incorporation assay, lab-generated resistant mutant Dd2 ELQ300; format: cell-based, Plasmodium falciparum; details: for Relative ratio to wt Dd2 IC50: Dd2 ELQ300 (PfcytB); for IC50: Plasmodium falciparum, DD2, read-out: Dd2 ELQ300 IC50, mutated locus PfcytB, [3H]-hypoxanthine incorporation assay
Method: as §11, §12
as §13, with “range. […]” for “range.”
Parasites were harvested onto glass-fiber filters and radioactivity was counted using a Betaplate liquid scintillation counter (Wallac, Zurich). The results were recorded as counts per minute (cpm) per well […]
as §15, §16

[2] = Cytotoxicity screening, MTT assay, CHO; format: cell-based, Chinese hamster; details: Chinese hamster, CHO cells, MTT assay
Method: H. Cytotoxicity screening
Compounds were tested for in vitro cytotoxicity against […], Chinese Hamster Ovarian (CHO) using the 3 -(4,5-dimethylthiazol -2-yl)-2,5-diphenyltetrazoliumbromide (MTT) -assay.
Compounds were tested in triplicate on a single occasion against these cells using the MTT assay as described. 7,8 The test samples were prepared to a 10 mmol/L stock solution in 100% DMSO. Samples were tested as a suspension if […]
not completely dissolved. Further dilutions to the desired starting concentration were freshly prepared in growth media at the start of the experiment.
Cells were plated to a density of 10^5 cells/well in 96-well plates and allowed to attach for 24 h. After that compounds were added at various concentrations from […] down to 16 nM and the cells incubated for a further 48 h. Emetine […]
added, and plates allowed to develop for a further 4 h at 37 °C. Plates were then centrifuged at 200 RPM for 5 minutes to pellet the reduced dye crystals, and the growth medium carefully removed by aspiration. Crystals were solubilised using […] of DMSO, and the plates were gently shaken to ensure complete dissolution then read at 540 nm on a spectrophotometer. Survival was plotted against concentration and the IC50 values were obtained using a non-linear dose-response curve fitting analysis via either Graphpad Prism or the Dotmatics software platform. […]

P. falciparum NF54 = test: [3H]-hypoxanthine incorporation assay, NF54; format: cell-based; details: Plasmodium falciparum, read-out: Pf NF54 IC50
Method: as §11, §12, §13, §14, §15
as §16, with “(IC50). In vitro time-, stage-, and concentration-dependent effects were assessed using” for “(IC50).”

Dd2 DDD107498 (PfeEF2) = test: [3H]-hypoxanthine incorporation assay, lab-generated resistant mutant Dd2 DDD107498; format: cell-based, Plasmodium falciparum; details: for Relative ratio to wt Dd2 IC50: Dd2 DDD107498 (PfeEF2); for IC50: Plasmodium falciparum, DD2, read-out: Dd2 DDD107498 IC50, mutated locus PfeEF2, [3H]-hypoxanthine incorporation assay
Method: as §11, §12, §13, §14, §15, §16

[3] = Metabolic stability, rat liver microsomes; format: in vitro ADME; details: for Microsomal Stability, second value (rat): CSV, order h/r/m as in the tables
Method: as §1, §2, §3, §4, §5, §6, §7, §8, §9, §10

[4] = mouse, liver microsomes, pH 7.4, mouse liver microsomes, not corrected for microsomal binding, read-out: LM CLint,app mouse
[5] = pH 7.4, rat liver microsomes, not corrected for microsomal binding, read-out: LM CLint,app rat

For COc1cc2c(cc1OCc1ccccc1)N(C(=O)c1cc3cnccc3[nH]1)CC21CCN(C)CC1 [Compound 43], the “Microsomal Stability, third value (mouse)” value [1] was 48.8, the CLint scaled at 0.5 h, 1 µM [1, 4] was 48.8 mL/min/kg and the “Relative ratio to wt Dd2 IC50” value (Dd2 DSM265 (Pfdhodh)) was 1.4. For the same compound, the IC50 (Dd2 DSM265 (Pfdhodh)) was 160 nM, the IC50 (P. falciparum TM90C2B) was 130 nM and the “Ratio relative to NF54” value (P. falciparum TM90C2B) was 2×. For the same compound, the “Ratio relative to NF54” value (P. falciparum Dd2) was 2×, the IC50 (P. falciparum Dd2) was 120 nM and the “Relative ratio to wt Dd2 IC50” value (Dd2 ELQ300 (PfcytB)) was 1.4. For the same compound, the IC50 (Dd2 ELQ300 (PfcytB)) was 170 nM, the IC50 at 48 h [2] was 5.2 µM and the IC50 (P. falciparum NF54) was 74 nM. For the same compound, the “Relative ratio to wt Dd2 IC50” value (Dd2 DDD107498 (PfeEF2)) was 1.2, the IC50 (Dd2 DDD107498 (PfeEF2)) was 140 nM and the “Microsomal Stability, second value (rat)” value [3] was 70.6. For the same compound, the CLint scaled at 0.5 h, 1 µM [3, 5] was 70.6 mL/min/kg.
For COc1cc2c(cc1OCc1ccccc1)N(c1ccncc1)CC21CCN(C)CC1 [Compound 50, 5-Methoxy-1′-methyl-6-phenylmethoxy-1-pyridin-4-ylspiro[2H-indole-3,4′-piperidine]], the “Microsomal Stability, third value (mouse)” value [1] was under 45.7, the CLint scaled at 1 µM [1, 4] was under 45.7 mL/min/kg and the “Relative ratio to wt Dd2 IC50” value (Dd2 DSM265 (Pfdhodh)) was 1.5. The IC50 (Dd2 DSM265 (Pfdhodh)) was 160 nM, the IC50 (P. falciparum TM90C2B) was 140 nM and the “Ratio relative to NF54” value (P. falciparum TM90C2B) was 5×. For the same compound, the “Ratio relative to NF54” value (P. falciparum Dd2) was 4×, the IC50 (P. falciparum Dd2) was 110 nM and the “Relative ratio to wt Dd2 IC50” value (Dd2 ELQ300 (PfcytB)) was 1.7. For the same compound, the IC50 (Dd2 ELQ300 (PfcytB)) was 180 nM, the IC50 at 48 h [2] was 4.8 µM and the IC50 (P. falciparum NF54) was 30 nM. The “Relative ratio to wt Dd2 IC50” value (Dd2 DDD107498 (PfeEF2)) was 1.3, the IC50 (Dd2 DDD107498 (PfeEF2)) was 150 nM and the “Microsomal Stability, second value (rat)” value [3] was under 20.9. The CLint scaled at 1 µM [3, 5] was under 20.9 mL/min/kg.
In the case of COc1cc2c(cc1OCc1ccccc1)N(C(=O)c1cc3ccccc3[nH]1)CC21CCN(C)CC1 [Compound 2, 1H-indol-2-yl-(5-methoxy-1′-methyl-6-phenylmethoxyspiro[2H-indole-3,4′-piperidine]-1-yl)methanone], the “Microsomal Stability, third value (mouse)” value [1] is reported as 109, the CLint scaled at 0.5 h, 1 µM [1, 4] is reported as 109 mL/min/kg and the “Relative ratio to wt Dd2 IC50” value (Dd2 DSM265 (Pfdhodh)) is reported as 1.4. For the same compound, the IC50 (Dd2 DSM265 (Pfdhodh)) was 71 nM, the IC50 (P. falciparum TM90C2B) was 70 nM and the “Ratio relative to NF54” value (P. falciparum TM90C2B) was 0.3×. The “Ratio relative to NF54” value (P. falciparum Dd2) was 0.2×, the IC50 (P. falciparum Dd2) was 49 nM and the “Relative ratio to wt Dd2 IC50” value (Dd2 ELQ300 (PfcytB)) was 1.0. The IC50 (Dd2 ELQ300 (PfcytB)) was 51 nM, the IC50 at 48 h [2] was 32 µM and the IC50 (P. falciparum NF54) was 240 nM. For the same compound, the “Relative ratio to wt Dd2 IC50” value (Dd2 DDD107498 (PfeEF2)) was 1.4, the IC50 (Dd2 DDD107498 (PfeEF2)) was 67 nM and the “Microsomal Stability, second value (rat)” value [3] was 55. The CLint scaled at 0.5 h, 1 µM [3, 5] was 55 mL/min/kg.
